Experimental data from patent US20110195911A1, “SYNTHETIC ANALOGS OF THE JUXTAMEMBRANE DOMAIN OF IGF1R AND USES THEREOF” (THE UNITED STATES OF AMERICA,AS REPRESENTED BY THE …, priority 2008, published 2011).
Where a SMILES comes first, the peptide text is derived from it. [ ]: non-standard residue; d: D form. The star is where a group is joined. Palmitoyl = CCCCCCCCCCCCCCCC(=O)*

Columns and labels:
Type in all cases: cell-based
[1] = tested on: MCF-7 breast cancer cells; test: MTT cell toxicity assay in MCF-7 breast cancer cells; details: MCF-7 cells, MTT; for TGI: concentration of total growth inhibition (cytostatic); for growth inhibition / potency in MCF-7 cells (in words): comparison with related peptides
In short: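 MCF-7 cells seeded in 1% FBS medium, grown 24 h, then exposed to compounds at 0.1, 0.5, 2.5 or 5.0 μM (final, 0.5% FBS) for 48 h. MTT absorbance at 544 nm; growth relative to time-zero and untreated controls gave GI50 (50% growth inhibition) and TGI (zero net growth).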

breast cancer cell lines = test: Alternative potency assay (MTT, serum-free, IGF-1 added) in cancer cell lines, FIG. 1; details: breast cancer cell lines (MCF-7, T47D), IGF-1 10 ng/mL
Description: An alternative potency assay was used to test compounds in MCF-7 (breast cancer), T47D (breast cancer), Colo 205 (colon cancer), JM-1 (rat hepatoma), Sk MeI-2 (melanoma), PLC (human hepatoma), and HepG2 (human hepatoma) cells. Cells were suspended at a concentration of approximately 5000 cells per 100 μL of suspension in a 5% FBS RPMI medium. The cells were seeded into 96-count wells and incubated over night. After one day's incubation, the 5% FBS medium was aspirated and replaced with 100 μL of no serum RPMI medium containing 1 mg Bovine Serum Albumin (BSA) per 1 mL RPMI. Various concentrations of the test compounds were prepared by dilution in no-serum medium containing 1 mg BSA/mL. […] Absorbance of the wells at 544 nm was determined by a FLUOstar/POLARstar Galaxy (BMG Lab Technologies GmbH) microplate reader. The activity was calculated from the data using the formula: 100×[(T−T0)/(C−T0)] for T>T0 and 100×[(T−T0)/T0] for T<T0, wherein T0 corresponds to cell density at the time of drug addition, “T” is the optical density of the test well after a 48-h period of exposure to test drug, and “C” is the control optical density. […]

AKT kinase = test: OMNIA fluorogenic AKT kinase activity assay in lysates of IGF-1-stimulated MCF-7 cells, FIG. 3; details: MCF-7 stimulated with IGF-1, inhibitor 0 to 0.5 μM to 2.5 μM
Description: AKT Kinase Assay: OMNIA™ fluorogenic AKT Kinase Activity Assay Kit (BioSource through Invitrogen) was used for the measurement of AKT activity in cell lysates. To prepare for the cell treatment, MCF-7 cells were seeded into four wells on a six-well plate in RPMI medium. The medium was supplemented with 10% Fetal Bovine Serum to aid the cell attachment. The cells were incubated for 24 hours, after which time the 10% serum medium was aspirated and replaced with 2 mL of no-serum medium. The cells were starved overnight to stop the signaling from the FBS. On the third day, the medium was replaced and different dilutions of peptide diluted in no-serum medium was added to the four wells. Well 1 & 2 had 0.0 μM of 18, well 3 0.5 and well 4 2.5 μM.
The cells were placed on ice briefly to aid in detaching and then scraped from the bottom of the wells and rinsed with cold PBS. The cells suspended in PBS were collected and centrifuged for 5 minutes at 1500 rpm at 4° C. and the medium aspirated. […]
Master mix AKT fluorogenic substrate was prepared according to the protocol provided by BioSource. […] The fluorescence was excited at 360 nm and read at 485 nm for a length of 60 minutes every thirty seconds on a FLUOstar/POLARstar Galaxy (BMG Lab Technologies GmbH) microplate reader. […]

[2] = final 0.5% FBS, two days with compound

SMILES | GI50 [1, 2] [nM] | TGI [1, 2] [nM] | growth inhibition / potency in MCF-7 cells (in words) [1] | cell-growth inhibitory properties (breast cancer cell lines) | AKT enzyme activity (AKT kinase)
CCCCCCCCCCCCCCCC(=O)N[C@@H](Cc1c[nH]cn1)C(=O)N[C@@H](CCCNC(=N)N)C(=O)N[C@@H](CCCCN)C(=O)N[C@@H](CCCNC(=N)N)C(=O)N[C@@H](CC(N)=O)C(=O)N[C@@H](CC(N)=O)C(=O)N[C@@H](CO)C(=O)N[C@@H](CCCNC(=N)N)C(=O)N[C@@H](CC(C)C)C(=O)NCC(=O)N[C@@H](CC(N)=O)C(=O)NCC(=O)N[C@H](C(=O)N[C@@H](CC(C)C)C(=O)N[C@@H](Cc1ccc(O)cc1)C(N)=O)C(C)C [Peptide 9, Pal-HRKRNNSRLGNGVLY-NH2] (Palmitoyl-HRKRNNSRLGNGVLY-NH2) | 1650 ± 100 | >5000 | did not improve the degree of folding or the potency | significant cell-growth inhibitory properties | 
CCCCCCCCCCCCCCCC(=O)NCCCC[C@@H](NC(=O)[C@@H](CCCNC(=N)N)NC(=O)[C@@H](CC(N)=O)NC(=O)[C@@H](CC(N)=O)NC(=O)[C@@H](CO)NC(=O)[C@@H](CCCNC(=N)N)NC(=O)[C@@H](CC(C)C)NC(=O)CNC(=O)[C@@H](CC(N)=O)NC(=O)CNC(=O)[C@H](NC(=O)[C@@H](CC(C)C)NC(=O)[C@@H](Cc1ccc(O)cc1)NC(C)=O)C(C)C)C(N)=O [Peptide 18, Ac-YLVGNGLRSNNRK-(ε-Pal)] (Ac-[dY][dL][dV]G[dN]G[dL][dR][dS][dN][dN][dR][dK](Palmitoyl)-NH2; C-terminus assumed) |  | 400 ± 20 | increased the potency |  | decreased to undetectable levels
